Measured values taken from patent US6569631B1, “Microplate thermal shift assay for ligand development using 5-(4″dimethylaminophenyl)-2-(4′-phenyl)oxazole derivative fluorescent dyes” (3-Dimensional Pharmaceuticals, Inc., priority 1998, dated 2003).

How the values were obtained:
[1] = test system: D(II) domain of fibroblast growth factor receptor 1 (FGFR1); experiment: Microplate thermal shift assay for ligands binding to D(II) FGFR1, fluorescence emission signal; design: species or system human; conditions: D(II) FGFR1 70 μM; 136 μM ANS; ligand 150-156 μM
Excerpt: The microplate thermal-shift assay was employed to test the binding of heparin 5000 and pentosan PSO4 to the known heparin binding site in the D(II) domain of fibroblast growth factor receptor 1 (FGFR1). D(II) FGFR1 is a 124 residue domain which is responsible for most of the free energy of binding for bFGF. D(II) FGFR1 was cloned and expressed in E. coli. Recombinant D(II) FGFR1 was renatured from inclusion bodies essentially as described (Wetmore, D. R. et al., Proc. Soc. Mtg., San Diego, Calif. (1994)), except that a hexa-histidine tag was included at the N-terminus to facilitate recovery by affinity chromatography on a Ni^2+ chelate column (Janknecht, R. et al., Natl. Acad. Sci. USA 88:8972-8976 (1991)). D(II) FGFR1 was further purified on a heparin-sepharose column (Kan, M. et al., Science 259:1918-1921 (1993); Pantoliano, M. W. et al., Biochemistry 33:10229-10248 (1994)). […]
The D(II) FGFR1 protein was dissolved in an ANS solution to a concentration of 1.0 mg/mL (70 μM). […] Because ANS fluorescence is very environment dependent (see Lakowicz, I. R., Principles of Fluorescence Spectroscopy, Plenum Press, New York (1983)), the quantum yield observed for the denaturation of different proteins will vary. […] A similar result was obtained for Factor Xa, except that the fluorescence quantum yield for ANS bound to denatured Factor Xa was almost as good as it was for human α-thrombin.

[2] = biological target: T1, acidic fibroblast growth factor (aFGF) (Homo sapiens, UniProt P05230); experiment: Microplate thermal shift assay for ligands binding to aFGF, turbidity signal; conditions: turbidity signal; aFGF 0.25 mg/mL; ligand 47-200 μM
T1 construct: host or cells: E. coli
Excerpt: The second therapeutic receptor tested in the microplate thermal shift assay was acidic fibroblast growth factor (aFGF), a growth factor that plays a key role in angiogenesis (Folkman, J. et al., J. Biol. Chem. 267:1.0931-10934 (1992)). A synthetic gene for this protein was purchased from R&D Systems (Minneapolis, Minn.), and was cloned and expressed in E. coli using methods similar to those described for basic fibroblast growth factor (bFGF) (Thompson, L. D. et al., Biochemistry 33:3831-3840 (1994); Pantoliano, M. W. et al., Biochemistry 33:10229-10248 (1994); Springer, B. A. et al., J. Biol. Chem. 269:26879-26884 (1994)). Recombinant aFGF was then purified by heparin-sepharose affinity chromatography as described (Thompson, L. D. et al., Biochemistry 33:3831-3840 (1994)). aFGF is also known to bind heparin/heparan, which is a cofactor for mitogenic activity. […] A microplate thermal assay of these compounds was set up in a way similar to that described above for human α-thrombin. […] The affinity constants covered a fairly broad range of binding affinities, with pentosan PSO4 showing the highest affinity.

[3] = many described as coagulation anomalies; cited from earlier work
bFGF = bFGF (Homo sapiens, UniProt P09038); conditions: read-out: affinity for binding to bFGF by isothermal titrating calorimetry; cited from earlier work
[4] = biological target: T2, heparin binding site of human α-thrombin (Homo sapiens, UniProt P00734); experiment: Microplate thermal shift assay, ligands binding to the heparin binding site, turbidity signal
T2 construct: A stock human α-thrombin solution (1.56 mg/mL) from Enzyme Research Labs; purchased Enzyme Research Labs
Excerpt: Assays for ligands that bind to the heparin binding site of human α-thrombin are more difficult to perform than assays for ligands that bind to the active site of human α-thrombin. At the heparin binding site, no substrate is hydrolyzed, so no spectrophotometric signal can be amplified for instrumental detection. Heparin activity is usually estimated in biological clotting time assays. […] Thus, heparin binding to human α-thrombin represents the kind of challenge encountered with the vast majority of non-enzyme receptor/ligand binding events, which are commonly observed for hormone/receptor interactions, repressor/DNA interactions, neurotransmitter/receptor interactions, etc. Several heparin-like sulfated oligosaccharides and sulfated naphthalene compounds were assayed by the microplate thermal shift assay. Using the thermal shift assay, it was possible to use a single compound per well to quickly rank the compounds in order of increasing binding affinity, with Kd's ranging over three orders of magnitude (see Table 4). Like the experiment in Example 1, the thermal shift assay results agreed closely with the results obtained through an alternative method, which required a series of laborious (15 to 20 single determinations) fluorescence quench assays over a wide range of concentrations of low MW heparin (Olson, S. T. et al., J. Biol. Chem. 266:6342-6352 (1991)).

bFGF, sequence (P09038 134-288): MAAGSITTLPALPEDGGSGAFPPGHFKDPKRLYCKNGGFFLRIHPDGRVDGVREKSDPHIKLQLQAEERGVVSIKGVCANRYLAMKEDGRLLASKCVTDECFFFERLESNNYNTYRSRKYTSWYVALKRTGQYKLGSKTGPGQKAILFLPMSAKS
D(II) domain of fibroblast growth factor receptor 1 (FGFR1), sequence (P11362 158-246 limits assumed): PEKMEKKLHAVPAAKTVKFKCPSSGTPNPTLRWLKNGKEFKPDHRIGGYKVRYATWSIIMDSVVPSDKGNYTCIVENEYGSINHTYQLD
T1 sequence (P05230 whole entry, species assumed): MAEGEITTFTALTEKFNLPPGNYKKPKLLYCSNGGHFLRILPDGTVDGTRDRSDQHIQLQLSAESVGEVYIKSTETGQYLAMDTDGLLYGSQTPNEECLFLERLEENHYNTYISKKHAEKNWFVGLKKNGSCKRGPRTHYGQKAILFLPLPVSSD

pentosan polysulfate [Pentosan PSO4]
Tm [1]: 319.4 °K | Tm [2]: 336.15 °K | outcome of clinical trials for antiangiogenic activity [3]: discounted due to toxic effects | Kd (bFGF): 0.088 µM | affinity at Tm higher than the affinity of heparin 5000 ([4]; thermal shift assay, Table 4): 7 fold | Tm ([4]; turbidity signal, 11 μM thrombin, ligand 40-102 μM): 332.15 °K
